Values after ≈ are worked out from the molar mass of the structure shown. Structures can show the parent of a compound that is named as a salt.

Our source for the MIC and minimal effective concentration values is patent publication US11512079B2, “Heterocycle substituted pyridine derivative antifungal agents” (Amplyx Pharmaceuticals, Inc., priority 2017, dated 2022).

Holding throughout (format): cell-based
Test [1] has as its system Candida albicans 90028. Kind of test: In vitro antifungal assay (Example IX), microdilution broth, MIC. The conditions noted are these: minimum inhibitory concentration (≥50% inhibition), 35° C., 40-48 h, RPMI1640. The method, then:
Measurement of antifungal activity: Antifungal activity of the compounds was evaluated in a microdilution broth assay as per Clinical and Laboratory Standard Institute methodology for yeast (for Candida and Cryptococcus) (1) and molds (for Aspergillus and Rhizomucor) (2). Candida albicans 90028, Aspergillus fumigatus MYA3626, Rhizomucor pusillus 46342 and Cryptococcus neoformans H99 strains were obtained from American Type Culture Collection (ATCC).
Preparation of Fungal Suspension. C. albicans 90028 and C. neoformans H99 strains were streaked from frozen stocks at −80° C. onto Sabouraud Dextrose Agar (SDA) plates. These were allowed to grow for 24 h (C. albicans) and 48 h (C. neoformans) at 35° C. before using them in the assay. 5-6 individual colonies were picked and diluted into sterile water to obtain a fungal suspension. The cell density of the suspension was determined and the culture diluted with RPMI1640 medium to obtain a fungal suspension of 2.5×10^3 cells/mL. The suspension was used in the MIC measurement as described below.
Preparation of Compound Stocks and Intermediate Dilutions: The compounds were weighed and DMSO was added to prepare a 10 mg/mL stock. The solutions were mixed by vortexing and sonication at 37° C. for 5-10 mins. The resulting solutions were sterile filtered using a PTFE filter, and aliquoted (12 μL or as needed) and stored at −20° C. Intermediate compound dilutions were prepared in sterile polypropylene tubes in 100% DMSO. The compound stock solution was first diluted in DMSO to obtain a concentration of […] to 0.19 μg/mL.
MIC/MEC Measurement: 99 μL 1 of the fungal suspension in RPMI1640 prepared as above was added to each well of a 96-well round bottom assay plate. 1 μL of the intermediate compound dilutions (200-0.19 μg/mL) were added to wells of the plate. This led to a 100-fold dilution of the intermediate dilutions resulting in a final compound concentration of 2-0.0019 μg/mL in the plate. 1 μL of DMSO was added to “No drug” control wells. The solutions were mixed by shaking on a plate shaker for 10 mins and plates incubated at 35° C. for 40-48 h (C. albicans, A. fumigatus, R. pusillus) and 72 h (Cryptococcus). […] This was validated by thorough mixing and reading at 600 nm on a microplate reader. The minimum concentration that led to shortening of hyphae as compared to hyphal growth in DMSO control wells was determined as the minimum effective concentration (MEC) for A. fumigatus and R. pusillus (as read for echinocandins). The use of the MIC and MEC endpoints against yeasts and molds, respectively has been described by Pfaller M A, Duncanson F, Messer S A, Moet G J, Jones R N, Castanheira M. Antimicrob Agents Chemother. 2011. 55(11):5155-8. In vitro activity of a novel broad-spectrum antifungal, E1210, tested against Aspergillus spp. determined by CLSI and EUCAST broth microdilution methods. Results are shown in Table 2, and the letters indicate the following ranges in μg/mL: […]

Test [2] relates to Aspergillus fumigatus MYA3626. The test can be described thus: In vitro antifungal assay (Example IX), microdilution broth, MEC. The conditions noted are these: minimum effective concentration (shortening of hyphae), 35° C., 40-48 h, RPMI1640. The method, then:
(§1) Measurement of antifungal activity: […] Candida albicans 90028, Aspergillus fumigatus MYA3626, Rhizomucor pusillus 46342 and Cryptococcus neoformans […] strains were obtained from American Type Culture Collection (ATCC). […] (A. fumigatus) and 35° C. (R. pusillus). Water containing 1% Tween was directly added to the agar plate and gently agitated to wet and remove the Aspergillus conidia. For R. pusillus, water was added to the surface and gently massaged to wet and remove the spores. For both species, the conidia or spores and mycelial fragments were collected, followed by removal of mycelium, conidiophores and large clumps of conidia/spores. The resulting spore suspension was counted and diluted into RPMI1640 medium to adjust to a final suspension of 1-2×10^4 spores/mL. The suspension was used in the MEC measurement as described below. […] The compounds were weighed and DMSO was added to prepare a 10 mg/mL stock. The solutions were mixed by vortexing and sonication at 37° C. for 5-10 mins. The resulting solutions were sterile filtered using a PTFE filter, and aliquoted (12 μL or as needed) and stored at -20° C. Intermediate compound dilutions were prepared in sterile polypropylene tubes in 100% DMSO. […] This was validated by thorough mixing and reading at 600 nm on a microplate reader. The minimum concentration that led to shortening of hyphae as compared to hyphal growth in DMSO control wells was determined as the minimum effective concentration (MEC) for A. fumigatus and R. pusillus (as read for echinocandins). The use of the MIC and MEC endpoints against yeasts and molds, respectively has been described by Pfaller M A, Duncanson F, Messer S A, Moet G J, Jones […]. Antimicrob Agents Chemother. 2011. 55(11):5155-8. In vitro activity of a novel broad-spectrum antifungal, […], tested against Aspergillus spp. determined by CLSI and EUCAST broth microdilution methods. Results are shown in Table 2, and the letters indicate the following ranges in μg/mL: […]
On the technique in general: Dilution methods test growth across graded concentrations, often in twofold steps.

In test [3] the test system is Rhizomucor pusillus 46342. The test is described as above. The conditions noted are these: minimum effective concentration (shortening of hyphae), 35° C., 40-48 h, RPMI1640. The method, then: as §1

The MIC is the least concentration at which growth counts as inhibited. A high value points to a less susceptible organism. Broadly, the minimal effective concentration is the smallest amount tested that counted as effective. Read a low minimal effective concentration as greater potency. The molecule `c1ccc(Sc2ccc(Cn3cc(-c4cccnc4)cn3)cn2)cc1` [compound 66, 2-(phenylthio)-5-((4-(pyridin-3-yl)-1H-pyrazol-1-yl)methyl)pyridine] gave an MIC in test [1] of 0.1 to 1 mg/L (≈ 0.29 to 2.9 µM). Besides, the results for the minimal effective concentration in test [2] and in test [3] were 0.1 to 1 µg/mL and greater than 1 µg/mL, respectively.

Consider `Nc1ncccc1-c1cnn(Cc2ccc(Sc3ccccc3)nc2)c1` [compound 67, 3-(1-((6-(phenylthio)pyridin-3-yl)methyl)-1H-pyrazol-4-yl)pyridin-2-amine], for which the minimum inhibitory concentration (MIC) in test [1] was 0.1 to 1 mg/L (≈ 0.278 to 2.78 µM). For the same molecule, the minimal effective concentration in test [2] was 0.1 to 1 µg/mL; in test [3], greater than 1 µg/mL.

`Nc1ccc(-c2cnn(Cc3ccc(OCc4ccccc4)nc3)c2)cn1` [compound 68, 5-(1-((6-(benzyloxy)pyridin-3-yl)methyl)-1H-pyrazol-4-yl)pyridin-2-amine]: in test [1], the MIC lay within 0.1 to 1 mg/L (≈ 0.28 to 2.8 µM). Further, the minimal effective concentration in test [2] is 0.1 to 1 µg/mL; in test [3] it was greater than 1 µg/mL.

In test [1], `CC1=C(Oc2ccc(Cc3cc(-c4cccnc4N)on3)cn2)C(=O)C(C)O1` (stereo not drawn) [compound 71, 4-((5-((5-(2-aminopyridin-3-yl)isoxazol-3-yl)methyl)pyridin-2-yl)oxy)-2,5-dimethylfuran-3(2H)-one] had a minimum inhibitory concentration (MIC) greater than 1 mg/L. For the same molecule, the minimal effective concentration in test [2] and in test [3] was greater than 1 µg/mL throughout.

In test [1], `N#Cc1ccc(COc2ccc(Cc3cc(-c4cccnc4N)on3)cn2)cc1` [compound 76, 4-(((5-((5-(2-aminopyridin-3-yl)isoxazol-3-yl)methyl)pyridin-2-yl)oxy)methyl)benzonitrile] registered an MIC greater than 1 mg/L. Moreover, the minimal effective concentration in test [2] and in test [3] was 0.1 to 1 µg/mL each time.

Turning to `Nc1ncccc1-c1cc(Cc2ccc(OCc3cccc(Cl)c3)nc2)no1` [compound 85, 3-(3-((6-((3-chlorobenzyl)oxy)pyridin-3-yl)methyl)isoxazol-5-yl)pyridin-2-amine], in test [1], the MIC was 0.01 to 0.1 mg/L (≈ 0.0255 to 0.255 µM). Besides, the minimal effective concentration in test [2] lay within 0.01 to 0.1 µg/mL; in test [3], 0.1 to 1 µg/mL.

Molecule `Nc1ncccc1-c1cc(Cc2ccnc(OCc3cccc(F)c3)c2)no1` [compound 86, 3-(3-((2-((3-fluorobenzyl)oxy)pyridin-4-yl)methyl)isoxazol-5-yl)pyridin-2-amine] returned an MIC in test [1] of 0.01 to 0.1 mg/L (≈ 0.0266 to 0.266 µM). The minimal effective concentration is 0.01 to 0.1 µg/mL in test [2] and greater than 1 µg/mL in test [3].

For the molecule `Nc1ncccc1-c1cc(Cc2ccc(OCc3cc(F)cc(Cl)c3)nc2)no1` [compound 87, 3-(3-((6-((3-chloro-5-fluorobenzyl)oxy)pyridin-3-yl)methyl)isoxazol-5-yl)pyridin-2-amine], the minimal inhibitory concentration (MIC) in test [1] was 0.1 to 1 mg/L (≈ 0.243 to 2.43 µM). In addition, the minimal effective concentration was 0.01 to 0.1 µg/mL in test [2] and greater than 1 µg/mL in test [3].

`Nc1ncccc1-c1cc(Cc2ccnc(Oc3ccccc3)c2)no1` [compound 88]: in test [1], the MIC lay within 0.1 to 1 mg/L (≈ 0.29 to 2.9 µM). The minimal effective concentration in test [2] was 0.1 to 1 µg/mL; in test [3], greater than 1 µg/mL.

Take `Nc1ncccc1-c1cc(Cc2cccc(OCc3cccc(F)c3)n2)no1` [compound 89, 3-(3-((6-((3-fluorobenzyl)oxy)pyridin-2-yl)methyl)isoxazol-5-yl)pyridin-2-amine]: the MIC in test [1] is greater than 1 mg/L. Besides, the minimal effective concentration in test [2] and in test [3] was greater than 1 µg/mL throughout.

`Nc1ncccc1-c1cc(Cc2cccc(OCc3ccccc3F)n2)no1` [compound 90, 3-(3-((6-((2-fluorobenzyl)oxy)pyridin-2-yl)methyl)isoxazol-5-yl)pyridin-2-amine] gave an MIC in test [1] of 0.1 to 1 mg/L (≈ 0.266 to 2.66 µM). For the same molecule, the minimal effective concentration in test [2] and in test [3] was greater than 1 µg/mL each time.

With `Nc1ncccc1-c1cc(Cc2ccc(CNCc3ccn[nH]3)cc2)no1` [compound 93, 3-(3-(4-((((1H-pyrazol-5-yl)methyl)amino)methyl)benzyl)isoxazol-5-yl)pyridin-2-amine], the minimal inhibitory concentration (MIC) in test [1] is greater than 1 mg/L. Besides, the minimal effective concentration in test [2] and in test [3] was greater than 1 µg/mL throughout.

For the molecule `N#CCNCc1ccc(Cc2cc(-c3cccnc3N)on2)cc1` [compound 94, 2-((4-((5-(2-aminopyridin-3-yl)isoxazol-3-yl)methyl)benzyl)amino)acetonitrile], the minimal inhibitory concentration (MIC) in test [1] is greater than 1 mg/L. Besides, the minimal effective concentration in test [2] and in test [3] was greater than 1 µg/mL each time.

Take `Nc1ncccc1-c1cc(Cc2ccc(CNCC3CCOCC3)cc2)no1` [compound 95, 3-(3-(4-((((tetrahydro-2H-pyran-4-yl)methyl)amino)methyl)benzyl)isoxazol-5-yl)pyridin-2-amine]: the minimum inhibitory concentration (MIC) in test [1] was greater than 1 mg/L. The minimal effective concentration in test [2] and in test [3] was greater than 1 µg/mL in each case.

On to `Nc1ncccc1-c1cc(Cc2ccc(CNC3CCCCNC3=O)cc2)no1` (stereo not drawn) [compound 96, 3-((4-((5-(2-aminopyridin-3-yl)isoxazol-3-yl)methyl)benzyl)amino)azepan-2-one], for which the minimal inhibitory concentration (MIC) in test [1] is greater than 1 mg/L. Moreover, the minimal effective concentration in test [2] and in test [3] was greater than 1 µg/mL throughout.

In the case of `C=Cc1ccc(Cc2cc(-c3cccnc3N)on2)cc1` [compound 97, 3-(3-(4-Vinylbenzyl)isoxazol-5-yl)pyridin-2-amine], the MIC in test [1] is greater than 1 mg/L. Further, the minimal effective concentration was 0.1 to 1 µg/mL in test [2] and greater than 1 µg/mL in test [3].

`Nc1ncccc1-c1cc(Cc2ccc(CCSCCOC=O)cc2)no1` [compound 98, 2-((4-((5-(2-aminopyridin-3-yl)isoxazol-3-yl)methyl)phenethyl)thio)ethyl formate]: the MIC in test [1] was 0.1 to 1 mg/L. For the same molecule, the minimal effective concentration in test [2] is 0.1 to 1 µg/mL; in test [3], greater than 1 µg/mL.

Molecule `Nc1ncccc1-c1cc(Cc2ccc(Cn3cc(CO)cn3)cc2)no1` [compound 102, (1-(4-((5-(2-aminopyridin-3-yl)isoxazol-3-yl)methyl)benzyl)-1H-pyrazol-4-yl)methanol] gave a minimum inhibitory concentration (MIC) in test [1] greater than 1 mg/L. For the same molecule, the minimal effective concentration in test [2] and in test [3] was greater than 1 µg/mL throughout.

In test [1], `CCCc1cccc(OCc2ccc(Cc3cc(-c4cccnc4N)on3)cc2)c1` [compound 103, 3-(3-(4-((3-propylphenoxy)methyl)benzyl)isoxazol-5-yl)pyridin-2-amine] returned a minimum inhibitory concentration (MIC) of 0.1 to 1 mg/L (≈ 0.25 to 2.5 µM). The minimal effective concentration is 0.1 to 1 µg/mL in test [2] and greater than 1 µg/mL in test [3].

With `COc1ccc(COc2ccc(Cc3cc(-c4cccnc4N)on3)cc2)cc1` [compound 109, 3-(3-(4-((4-methoxybenzyl)oxy)benzyl)isoxazol-5-yl)pyridin-2-amine], the MIC in test [1] was greater than 1 mg/L. The minimal effective concentration in test [2] and in test [3] was greater than 1 µg/mL each time.
